Patent US20100216779A1 (GLAXOSMITHKLINE LLC, priority 2007, published 2010)

Legend:
Assay type in all cases: cell-based
[1] = system: COLO205 (colon); test: Inhibition of cell proliferation, CellTiter-Glo, COLO205; details: Homo sapiens, COLO 205, 72 h
How it was run: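 Exponentially growing COLO205 cells in medium with 10% FBS were plated below 2000 cells/well at 37 °C, 5% CO2. Untreated wells served as controls.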

[2] = target: T1, human IGF-1R (NIH-3T3 cells over expressing human IGF-1R) (Homo sapiens, UniProt P08069); test: IGF-1R cellular autophosphorylation (DELFIA); details: IGF-1 stimulated
T1 construct: expressed in transfected cells; host or cells: NIH-3T3 (mouse fibroblasts)
T1 sequence (P08069 31-1367): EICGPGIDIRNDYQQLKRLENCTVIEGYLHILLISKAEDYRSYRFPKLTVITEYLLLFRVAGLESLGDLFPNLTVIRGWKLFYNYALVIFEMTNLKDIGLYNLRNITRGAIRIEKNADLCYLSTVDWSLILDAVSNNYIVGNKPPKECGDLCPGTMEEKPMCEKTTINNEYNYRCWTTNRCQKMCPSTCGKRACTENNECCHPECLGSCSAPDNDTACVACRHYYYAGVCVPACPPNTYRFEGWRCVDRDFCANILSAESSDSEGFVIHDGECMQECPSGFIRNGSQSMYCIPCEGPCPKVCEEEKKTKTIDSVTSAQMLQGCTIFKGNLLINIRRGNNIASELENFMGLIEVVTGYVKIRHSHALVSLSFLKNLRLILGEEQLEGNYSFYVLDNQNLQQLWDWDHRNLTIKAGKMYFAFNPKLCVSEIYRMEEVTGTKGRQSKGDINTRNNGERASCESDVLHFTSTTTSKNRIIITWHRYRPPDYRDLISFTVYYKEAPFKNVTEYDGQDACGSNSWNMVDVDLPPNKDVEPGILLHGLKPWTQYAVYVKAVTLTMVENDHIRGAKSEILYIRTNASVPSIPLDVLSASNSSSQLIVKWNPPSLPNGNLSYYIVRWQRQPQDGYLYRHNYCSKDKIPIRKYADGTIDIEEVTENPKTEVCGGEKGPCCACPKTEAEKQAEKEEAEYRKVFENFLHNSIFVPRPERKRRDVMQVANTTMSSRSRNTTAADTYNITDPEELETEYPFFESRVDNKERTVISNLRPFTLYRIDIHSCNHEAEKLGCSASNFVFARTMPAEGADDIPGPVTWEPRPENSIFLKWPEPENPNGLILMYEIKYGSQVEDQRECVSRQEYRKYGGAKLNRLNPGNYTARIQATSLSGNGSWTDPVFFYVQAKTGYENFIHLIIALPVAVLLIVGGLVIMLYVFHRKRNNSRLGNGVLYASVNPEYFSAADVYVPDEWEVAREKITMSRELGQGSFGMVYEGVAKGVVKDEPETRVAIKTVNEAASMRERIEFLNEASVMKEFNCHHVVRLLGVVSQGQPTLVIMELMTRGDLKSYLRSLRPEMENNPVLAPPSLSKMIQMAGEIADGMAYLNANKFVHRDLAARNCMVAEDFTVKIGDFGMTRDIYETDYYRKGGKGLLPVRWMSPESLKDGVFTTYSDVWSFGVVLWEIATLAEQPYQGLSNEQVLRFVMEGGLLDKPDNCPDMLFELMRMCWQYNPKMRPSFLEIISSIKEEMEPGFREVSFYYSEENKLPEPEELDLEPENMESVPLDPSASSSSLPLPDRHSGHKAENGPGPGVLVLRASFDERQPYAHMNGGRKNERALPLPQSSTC
How it was run: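 Autophosphorylation of IGF-1R or IR is measured in NIH-3T3 lines overexpressing each human receptor after 2 h compound pretreatment and a 15 min ligand challenge (IGF-1 30 ng/mL; insulin 3 ug/mL). Fluorescence is normalised to 100% stimulation.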

[3] = target: T2, IR (NIH-3T3 cells over expressing human IGF-1R or IR) (Homo sapiens, UniProt P06213); test: IR cellular autophosphorylation (DELFIA); details: NIH-3T3 cells over expressing IR, insulin stimulated
T2 construct: expressed in transfected cells; host or cells: NIH-3T3 (mouse fibroblasts)
T2 sequence (P06213 28-1382): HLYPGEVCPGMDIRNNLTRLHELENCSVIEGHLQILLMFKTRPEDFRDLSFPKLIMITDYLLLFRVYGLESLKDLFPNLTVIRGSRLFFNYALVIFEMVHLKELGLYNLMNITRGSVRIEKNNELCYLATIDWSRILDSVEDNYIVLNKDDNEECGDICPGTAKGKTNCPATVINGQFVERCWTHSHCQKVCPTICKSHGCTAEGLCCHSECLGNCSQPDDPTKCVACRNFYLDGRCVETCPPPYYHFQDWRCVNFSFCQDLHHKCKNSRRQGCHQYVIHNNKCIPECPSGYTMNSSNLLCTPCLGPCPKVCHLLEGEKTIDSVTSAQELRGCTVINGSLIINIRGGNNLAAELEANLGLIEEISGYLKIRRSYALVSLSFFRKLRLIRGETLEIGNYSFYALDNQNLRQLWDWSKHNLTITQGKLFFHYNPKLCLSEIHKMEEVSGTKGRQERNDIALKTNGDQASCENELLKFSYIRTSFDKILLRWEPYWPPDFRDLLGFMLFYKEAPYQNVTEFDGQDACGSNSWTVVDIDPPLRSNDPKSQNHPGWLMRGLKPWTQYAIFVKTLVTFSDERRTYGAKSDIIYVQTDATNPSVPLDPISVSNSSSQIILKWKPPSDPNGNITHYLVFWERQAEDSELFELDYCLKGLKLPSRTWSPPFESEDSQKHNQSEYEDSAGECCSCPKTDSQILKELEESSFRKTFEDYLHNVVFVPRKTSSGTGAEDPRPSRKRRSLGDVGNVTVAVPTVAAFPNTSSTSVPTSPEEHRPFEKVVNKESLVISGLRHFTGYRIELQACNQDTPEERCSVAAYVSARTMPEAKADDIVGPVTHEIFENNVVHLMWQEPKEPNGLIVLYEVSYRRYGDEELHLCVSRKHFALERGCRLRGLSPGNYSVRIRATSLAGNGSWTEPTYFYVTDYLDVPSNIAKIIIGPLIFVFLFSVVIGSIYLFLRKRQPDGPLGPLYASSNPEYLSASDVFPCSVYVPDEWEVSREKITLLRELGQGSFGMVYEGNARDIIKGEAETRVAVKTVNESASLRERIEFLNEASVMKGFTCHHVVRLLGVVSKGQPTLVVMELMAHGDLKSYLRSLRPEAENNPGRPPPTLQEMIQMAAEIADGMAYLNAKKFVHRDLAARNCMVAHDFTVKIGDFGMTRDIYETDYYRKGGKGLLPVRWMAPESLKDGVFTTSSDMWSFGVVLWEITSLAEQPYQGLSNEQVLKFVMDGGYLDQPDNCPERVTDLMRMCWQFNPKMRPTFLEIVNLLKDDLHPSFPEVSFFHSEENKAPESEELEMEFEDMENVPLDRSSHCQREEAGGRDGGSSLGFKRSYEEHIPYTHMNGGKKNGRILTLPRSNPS
Protocol: D. IGF-1R and IR Cellular Autophosphorylation (DELFIA)
NIH-3T3 cells over expressing human IGF-1R or IR were plated in 96-well plates (10,000 cells/well) in culture media containing 10% fetal bovine serum and incubated at 37° C. in a 5% CO2 incubator. Twenty four hours post-plating, cells were treated with different concentrations of test compounds ranging from 30 uM to 1.5 nM. Two hours after compound addition, cells were stimulated with either human IGF-1 (30 ng/mL) or insulin (3 ug/mL) for 15 minutes. Cell lysates are analyzed for phosphorylated receptors using dissociation enhanced lanthanide fluor-immuno assay (DELFIA) with anti-IGF-1R (MAB391, R&D Systems, Minneapolis, Minn.) or anti-IR[…](sc-711, Santa Cruz Biotechnology, Santa Cruz, Calif.) capture antibody and europium-labeled anti-pTyr antibody (Eu-N1 PT66, Perkin Elmer, Waltham, Mass.) for detection. The fluorescence signal for cells treated with compounds was expressed as percent relative to 100% stimulation (IGF-1 or insulin stimulated signal). […]

Compound | IC50 [1] [nM] | IC50 [2] [nM] | IC50 [3] [nM]
CC(C)COc1cc(N2CCC(N3CCCCC3)CC2)ccc1Nc1nccc(-c2c(-c3cccc(C(=O)Nc4c(F)cccc4F)c3)nc3ccccn23)n1 [Example 32, 3-{3-[2-({4-(1,4′-bipiperidin-1′-yl)-2-[(2-methylpropyl)oxy]phenyl}amino)-4-pyrimidinyl]imidazo[1,2-a]pyridin-2-yl}-N-(2,6-difluorophenyl)benzamide] | 250 to 1000 | > 500 | > 500
CCCOc1cc(N2CCC(N3CCCCC3)CC2)ccc1Nc1nccc(-c2c(-c3cccc(C(=O)Nc4c(F)cccc4F)c3)nc3ccccn23)n1 [Example 33, 3-[3-(2-{[4-(1,4′-bipiperidin-1′-yl)-2-(propyloxy)phenyl]amino}-4-pyrimidinyl)imidazol[1,2-a]pyridin-2-yl]-N-(2,6-difluorophenyl)benzamide] | 250 to 1000 | < 100 | 100 to 500
COc1cc(N2CCC(CN3CCCCC3)CC2)ccc1Nc1nccc(-c2c(-c3cccc(C(=O)Nc4c(F)cccc4F)c3)nc3ccccn23)n1 [Example 36, N-(2,6-difluorophenyl)-3-{3-[2-({2-(methyloxy)-4-[4-(1-piperidinylmethyl)-1-piperidinyl]phenyl}amino)-4-pyrimidinyl]imidazo[1,2-a]pyridin-2-yl}benzamide] | 250 to 1000 | < 100 | < 100
COc1cc(N2CCC(CN3CCN(C)CC3)CC2)ccc1Nc1nccc(-c2c(-c3cccc(C(=O)Nc4c(F)cccc4F)c3)nc3ccccn23)n1 [Example 37, N-(2,6-difluorophenyl)-3-(3-{2-[(2-(methyloxy)-4-{4-[(4-methyl-1-piperazinyl)methyl]-1-piperidinyl}phenyl)amino]-4-pyrimidinyl}imidazo[1,2-a]pyridin-2-yl)benzamide] | 250 to 1000 | < 100 | < 100
COc1ccn2c(-c3ccnc(Nc4ccc(N5CCC(N6CCCCC6)CC5)cc4OC)n3)c(-c3cccc(C(=O)Nc4c(F)cccc4F)c3)nc2c1 [Example 39, 3-[3-(2-{[4-(1,4′-bipiperidin-1′-yl)-2-(methyloxy)phenyl]amino}-4-pyrimidinyl)-7-(methyloxy)imidazo[1,2-a]pyridin-2-yl]-N-(2,6-difluorophenyl)benzamide] | > 1000 | < 100 | 100 to 500
CCc1cc(N2CCC(N3CCCCC3)CC2)ccc1Nc1nccc(-c2c(-c3cccc(C(=O)Nc4c(F)cccc4F)c3)nc3ccccn23)n1 [Example 40, 3-[3-(2-{[4-(1,4′-bipiperidin-1′-yl)-2-ethylphenyl]amino}-4-pyrimidinyl)imidazo[1,2-a]pyridin-2-yl]-N-(2,6-difluorophenyl)benzamide] | 250 to 1000 | < 100 | 100 to 500
COc1cc(N2CCC(N3CCCCC3)CC2)ccc1Nc1nccc(-c2c(-c3cccc(C(=O)Nc4c(F)cccc4F)c3)nc3c(C)cccn23)n1 [Example 43, 3-[3-(2-{[4-(1,4′-bipiperidin-1-yl)-2-(methyloxy)phenyl]amino}-4-pyrimidinyl)-8-methylimidazo[1,2-a]pyridin-2-yl]-N-(2,6-difluorophenyl)benzamide] | 250 to 1000 | < 100 | 100 to 500
COc1cc(N2CCC(N3CCCCC3)CC2)ccc1Nc1nccc(-c2c(-c3cccc(C(=O)Nc4ccc(F)cc4Cl)c3)nc3ccccn23)n1 [Example 44, 3-[3-(2-{[4-(1,4′-bipiperidin-1′-yl)-2-(methyloxy)phenyl]amino}-4-pyrimidinyl)imidazo[1,2-a]pyridin-2-yl]-N-(2-chloro-4-fluorophenyl)benzamide] | 250 to 1000 | < 100 | 100 to 500
COc1cc(N2CCC(N3CCCCC3)CC2)ccc1Nc1nccc(-c2c(-c3cccc(C(=O)Nc4ccc(Cl)cc4F)c3)nc3ccccn23)n1 [Example 45, 3-[3-(2-{[4-(1,4′-bipiperidin-1′-yl)-2-(methyloxy)phenyl]amino}-4-pirimidinyl)imidazo[1,2-a]pyridin-2-yl]-N-(4-chloro-2-fluorophenyl)benzamide] | 250 to 1000 | < 100 | 100 to 500
Cc1cc(N2CCC(N3CCCCC3)CC2)ccc1Nc1nccc(-c2c(-c3cccc(C(=O)Nc4c(F)cccc4F)c3)nc3ccccn23)n1 [Example 53, 3-[3-(2-{[4-(1,4′-bipiperidin-1′-yl)-2-methylphenyl]amino}-4-pyrimidinyl)imidazo[1,2-a]pyridin-2-yl]-N-(2,6-difluorophenyl)benzamide] | 250 to 1000 | < 100 | 100 to 500
COc1ccn2c(-c3ccnc(Nc4ccc(N5CCC(N6CCN(CCF)CC6)CC5)cc4OC)n3)c(-c3cccc(C(=O)Nc4c(F)cccc4F)c3)nc2c1 [Example 62, N-(2,6-difluorophenyl)-3-[3-(2-{[4-{4-[4-(2-fluoroethyl)-1-piperazinyl]-1-piperidinyl}-2-(methyloxy)phenyl]amino}-4-pyrimidinyl)-7-(methyloxy)imidazo[1,2-a]pyridin-2-yl]benzamide] | 250 to 1000 | < 100 | < 100
COc1cc(N2CCC(N3CCCCC3)CC2)ccc1Nc1nccc(-c2c(-c3cccc(C(=O)Nc4ccc(F)cc4F)c3)nc3ccccn23)n1 [Example 72, 3-[3-(2-{[4-(1,4′-bipiperidin-1′-yl)-2-(methyloxy)phenyl]amino}-4-pyrimidinyl)imidazo[1,2-a]pyridin-2-yl]-N-(2,4-difluorophenyl)benzamide] | 250 to 1000 | < 100 | < 100

Results, then the compound that gave them:

IC50 [1] [nM] | IC50 [2] [nM] | IC50 [3] [nM] | Compound
250 to 1000 | < 100 | 100 to 500 | CCOc1cc(N2CCC(N3CCCCC3)CC2)ccc1Nc1nccc(-c2c(-c3cccc(C(=O)Nc4c(F)cccc4F)c3)nc3ccccn23)n1 [Example 34, 3-[3-(2-{[4-(1,4′-bipiperidin-1′-yl)-2-(ethyloxy)phenyl]amino}-4-pyrimidinyl)imidazo[1,2-a]pyridin-2-yl]-N-(2,6-difluorophenyl)benzamide]
250 to 1000 | 100 to 500 | 100 to 500 | CC(C)Oc1cc(N2CCC(N3CCCCC3)CC2)ccc1Nc1nccc(-c2c(-c3cccc(C(=O)Nc4c(F)cccc4F)c3)nc3ccccn23)n1 [Example 35, 3-{3-[2-({4-(1,4′-bipiperidin-1′-yl)-2-[(1-methylethyl)oxy]phenyl}amino)-4-pyrimidinyl]imidazo[1,2-a]pyridin-2-yl}-N-(2,6-difluorophenyl)benzamide]
> 1000 | 100 to 500 | 100 to 500 | COc1cc(N2CCC(N3CCC(C)CC3)CC2)ccc1Nc1nccc(-c2c(-c3cccc(C(=O)Nc4c(F)cccc4F)c3)nc3ccccn23)n1 [Example 46, N-(2,6-difluorophenyl)-3-[3-(2-{[4-(4-methyl-1,4′-bipiperidin-1′-yl)-2-(methyloxy)phenyl]amino}-4-pyrimidinyl)imidazo[1,2-a]pyridin-2-yl]benzamide]
250 to 1000 | < 100 | 100 to 500 | COc1cc(N2CCC(N3C[C@@H](C)O[C@@H](C)C3)CC2)ccc1Nc1nccc(-c2c(-c3cccc(C(=O)Nc4c(F)cccc4F)c3)nc3ccccn23)n1 [Example 47, N-(2,6-difluorophenyl)-3-[3-(2-{[4-{4-[(2R,6S)-2,6-dimethyl-4-monpholinyl]-1-piperidinyl}-2-(methyloxy)phenyl]amino}-4-pyrimidinyl)imidazo[1,2-a]pyridin-2-yl]benzamide]
250 to 1000 | < 100 | < 100 | COc1cc(N2CCC(N3CCCCCC3)CC2)ccc1Nc1nccc(-c2c(-c3cccc(C(=O)Nc4c(F)cccc4F)c3)nc3ccccn23)n1 [Example 50, N-(2,6-difluorophenyl)-3-[3-(2-{[4-[4-(hexahydro-1H-azepin-1-yl)-1-piperidinyl]-2-(methyloxy)phenyl]amino}-4-pyrimidinyl)imidazo[1,2-a]pyridin-2-yl]benzamide]
250 to 1000 | < 100 | 100 to 500 | COc1cc(N2CCC(O)CC2)ccc1Nc1nccc(-c2c(-c3cccc(C(=O)Nc4c(F)cccc4F)c3)nc3ccccn23)n1 [Example 73, N-(2,6-difluorophenyl)-3-[3-(2-{[4-(4-hydroxy-1-piperidinyl)-2-(methyloxy)phenyl]amino}-4-pyrimidinyl)imidazo[1,2-a]pyridin-2-yl]benzamide]
< 250 | < 100 | < 100 | COc1cc(N2CCC(N3CCCC3)CC2)ccc1Nc1nccc(-c2c(-c3cccc(C(=O)Nc4c(F)cccc4F)c3)nc3ccccn23)n1 [Example 78, N-(2,6-difluorophenyl)-3-{3-[2-({2-(methyloxy)-4-[4-(1-pyrrolidinyl)-1-piperidinyl]-phenyl}amino)-4-pyrimidinyl]imidazo[1,2-a]pyridin-2-yl}benzamide]
